In US20210085742A1, “FRUIT EXTRACT AND USES THEREOF” (THE UNIVERSITY OF NOTTINGHAM, priority 2017, published 2021):

Assays:
[1] = system: IL-6; experiment: IL-6 inflammatory activity in IL-1α+TNFα treated cells; format: cell-based; conditions: dose of about 10 μg
[2] = system: Lung Carcinoma (A549); experiment: anti-proliferative activity, wst-1, lung cancer cell line; format: cell-based, human
Procedure: Human tissue culture experiments—lung (A549), ovarian (OVCAR-3, SKOV), breast (MDA-MB-231) and prostate (PC-3) cancer cell lines were chosen to provide a broad profile of different cancer cell types and their response to treatment with the natural compound. Cell were seeded as a mono-layer in 96 well flat bottom Nunc tissue culture plates at a density of 10,000 cells per well and supplemented with RPMI 1640 media (Sigma Aldrich) containing 10% foetal calf serum, penicillin and streptomycin. Cells were then treated for 72 hours with a range of concentrations of MGDG either DMSO soluble, media soluble sample or the pure synthetic molecule. Four biological repetitions were tested for each dose. Activity of each treatment was then assessed using wst-1 reagent (Roche) as per the manufacturer's instructions. Data was visualised using a victor plate reader (Perkin Elmer) at a wavelength of 450 nm.

[3] = system: Neuroligin 1 (5'UTR) luciferase reporter; experiment: Neuroligin 1 5'UTR firefly luciferase reporter; format: cell-based
From the text: (§1) Transient transfection conditions and luciferase reporter constructs—Firefly luciferase reporter plasmids containing the 5′ untranslated regions (UTRs) of the genes Neuroligin 1 and Neuroligin 2 were a kind gift from Professor Nahum Sonenberg (McGill) and used as described by Gkogkas et al, 2013. Nature, 17; 371-377.
(§2) Cells were transfected using FuGene 6 (Roche) following the manufacturer's instructions. The activities of firefly and Renilla luciferase in lysates prepared from transfected cells were measured using a commercially available Luciferase reporter assay system (Promega) and light emission was measured over a 10 sec interval using either a TECAN luminometer. For each experiment described, data was obtained from a minimum of at least 3 biological repetitions per treatment.

[4] = system: Neuroligin 2 5'UTR luciferase reporter; experiment: Neuroligin 2 5'UTR firefly luciferase reporter; format: cell-based
From the text: as §1, §2

[5] = system: cancer cells; experiment: dose calculation for inhibition of growth of cancer cells; set-up: species or system human
[6] = system: mice; experiment: mouse in vivo toxicity study; conditions: oral, 2000 mg/kg everyday for 14 days vs water control

CC/C=C\C/C=C\C/C=C\CCCCCCCC(=O)OC[C@H](COC1OC(CO)C(O)C(O)C1O)OC(=O)CCCCCCC/C=C\C/C=C\C/C=C\CC (some centres unmarked) [MGDG, monogalactosyl diacylglycerol]
reduction of IL-6 inflammatory activity [1]: ~80%
anti-cancer / anti-proliferative activity [2]: anti-proliferative effects
effect on Neuroligin 1 reporter [3]: can be dampened
reduction in the levels of Neuroligin 1 ([3]; 10 μM dose, luciferase reporter system): about 35%
effect on Neuroligin 2 reporter activity [4]: unaffected
inhibition in the growth of cancer cells ([5]; daily dose of approximately 11 mgs, human): 50%
inhibition in the growth of cancer cells ([5]; dose of approximately 5.5 mgs in a 60kg human): 30%
survival or weight / toxicity [6]: no difference in survival or weight
